# Measured values taken from PMC5686179, “Phage display and selection of lanthipeptides on the carboxy-terminus of the gene-3 minor coat protein” (Nature Communications, 2017).
# Ends that are not written are not given here.
# How the values were obtained:
# [1] = test system: nisin-sensitive L. lactis NZ9000; experiment: Growth inhibition, filter-disc bioactivity assay (nisin); type: cell-based; conditions: NisA produced as C-terminal MBP fusion in E. coli with NisBC; 20 µM leader-core peptide, trypsin treated; 40 µl on filter disc
# Excerpt: (§1) MBP IEGR His6 leader core peptide
# (§2) LctA-core […] NisA-core […]
# (§3) ProcM enz yme NisBC enzymes […]
# (§4) modified KGGSGVIHAbuIAHEANMNAWQFVFDhbAAS modified IDhbAIDhaLAAbuPGAKAbuGALMGANMKAbuAAbuAHASIHVDhaK […]
# (§5) 1: PBS + trypsin 1: PBS + trypsin
# (§6) 2: Authentic lacticin 481 2: Authentic Nisin
# (§7) 3: MBP_His6_P roc A 3. 3-LctA + trypsin 3: MBP_His6_NisA + trypsin
# (§8) 4: MBP_His6_P roc A 3. 3-Lc tA + ProcM + trypsin 4: MBP_His6_NisA + NisBC + trypsin
# (§9) Supplementary Figure 3 Bioactivit y assay of lanthipeptides produced as C-term inal fusions to MBP.
# (§10) (a) Schem atic drawing of the MBP-fusion vector used for expression of a chim eric peptide consisting of the ProcA3.3 leader sequence fused to the core of LctA (left panel) and NisA (right panel; full sequences shown in Supplem entary Table 5). The sequence of the unm odified and m odified core peptides as reported in the literature are indicated1. The arrow indicates a tr ypsin cleavage site used to release the m ature core peptide. (b) Growth inhibition of lacticin 481- sensitive L. lactis cremonis (HP) by filter- disc spotted peptide solutions. (1) Trypsin treated PBS (negative control); (2) authentic lacticin 481 (positive control); (3) ProcA3.3-LctA produced as C-term inal MBP fusion in E. coli without ProcM co- expression and treated with tr yps in; (4) ProcA3.3- LctA produced as C-term inal MBP fusion in E. coli with ProcM co-ex pression and treated with tr ypsin. […]
# [2] = test system: lacticin 481-sensitive L. lactis cremonis (HP); experiment: Growth inhibition, filter-disc bioactivity assay (lacticin 481); type: cell-based, L. lactis subsp. cremonis (HP); conditions: ProcA3.3-LctA produced as C-terminal MBP fusion in E. coli with ProcM; 20 µM leader-core peptide, trypsin treated; 40 µl on filter disc
# Excerpt: as §1, §2, §3, §4, §5, §6, §7, §8, §9, §10
# streptavidin = experiment: ELISA for streptavidin binding of purified His6-tagged leader-core peptides; conditions: plates coated with 100 nM streptavidin; for streptavidin binding, effect of reducing conditions: 10 mM DTT vs non-reducing; for streptavidin binding, dependence on ProcM co-expression: peptide produced with or without ProcM, 1 h room temperature, anti-His detection
# Description: Peptide candidates identified by phage display were produced and purified as leader-core peptides as described above. 384 well Maxisorp plates were coated with uPA or streptavidin (100 nM each) overnight at 4 °C. After washing and blocking the plates as described above, serial dilutions of the peptide preparations in PBST containing 0.5% (w v^−1) BSA (and 10 mM DTT for anti-streptavidin replicates) were added in duplicate, and plates incubated for 1 h at room temperature, shaking. Detection of bound peptides with AP-conjugated anti-His IgG was performed as described above.
# human uPA = biological target: T1, human uPA (Homo sapiens, UniProt P00749); experiment: Inhibition of uPA catalytic activity, fluorogenic substrate; type: biochemical; conditions: PEP333 leader-core peptide, ProcM-modified; 1.5 nM human uPA; 50 µM Z-Gly-Gly-Arg 7-amido-4-methylcoumarin; 10 mM Tris-HCl pH 7.4, 5% DMSO; 25°C, 30 min; fluorescence 355/460 nm; experiment repeated three times; read-out: inhibitory constant Ki
# T1 construct: purchased ProsPec enz-264-c
# Description: Determination of inhibitory activit y of lanthipeptides
# The inhibitory activities of ProcM-modified and non- modified anti-uPA peptides were determined as previously described2. In brief, 1.5 nM human uPA (ProsPec, # enz-264- c; purified by size exclusion chromatography) were incubated with 50 µM of the fluorogenic substrate Z-Gly-Gly-Arg 7 -am ido-4-methylcoumarin hydrochloride (Santa Cruz Biotechnology, # sc-208012) and different concentrations of anti-uPA peptides. Substrate and peptides were diluted in 10 mM Tris-HCl (pH 7.4), 150 mM NaCl, 10 mM MgCl2, 1 m M CaCl2, 0.1% (w v-1) BSA, 0.01% Triton X-100, 5% (v v-1) DMSO buff er. The uPA activity was measured by monitoring the change in fluorescence intensity after an incubation step at 25°C for 30 minutes (black 96 well plate with clear flat bottom, Corning CellBIND, # 3340; excitation at 355 nm, emission recorded at 460 nm, Tecan M200pro, […]). A […]
# Anal ysis of phage-selected peptides by mass spectrometry
# Samples were analyzed by FTMS using a Shimadzu UFLC system (Shimadzu, Den Bosch, The Netherlands) coupled on- line via the HESI interface with a LTQ–Orbitrap- XL mass spectrometer (Thermo Fisher Scientific., San Jose, CA). Samples were loaded onto an Acquity UPLC, BEH C18. 50 x 2.1mm, 1.7µM (Waters, Ireland). […]
Substance,"streptavidin binding, effect of reducing conditions (streptavidin)","streptavidin binding, dependence on ProcM co-expression (streptavidin)",also measured
"IDhbAIDhaLAAbuPGAKAbuGALMGANMKAbuAAbuAHASIHVDhaK (bicyclic or more) [nisin, antimicrobial lantibiotic, expressed as C-terminal MBP fusion with NisBC]",,,antimicrobial activity [1]: confirmed their antimicrobial activity
KGGSGVIHAbuIAHEANMNAWQFVFDhbAAS (bicyclic or more) [lacticin 481],,,antimicrobial activity [2]: confirmed their antimicrobial activity
ANCIQHLTHSPTVHKYFCPAAGPHHHHHH (also: bicyclic or more (positions not given here)) [PEP331],only a slight reduction in binding was noticed in a reducing environment,strictly dependent on post-translational modifications introduced by ProcM,
AICQIADATRTGENRKCLAAGPHHHHHH (also: sidechain bridge or staple (positions not given here)) [PEP333],,,Ki (human uPA): 564 nM
TNCGRKMSATYSGQKMYCIAAGPHHHHHH (also: bicyclic or more (positions not given here)) [PEP330],reducing conditions had only minor effects,bound streptavidin regardless of ProcM co-expression,
